Results from paper PMC5584254, “Identification of novel small molecule Beclin 1 mimetics activating autophagy” (Oncotarget, 2017).

Experiments:
Bcl-xL protein = biological target: T1, Bcl-xL protein (Homo sapiens, UniProt Q07817); experiment: Surface plasmon resonance assay, immobilized Bcl-xL; type: binding; settings: for binding level to Bcl-xL protein in SPR: 10 μM compound, Bcl-xL immobilized 10000 RU
T1 construct: made in house
Procedure: (§1) The surface plasmon resonance experiments were performed using a Biacore 3000 (GE Healthcare Pittsburgh, PA) equipped with a research-grade CM5 sensor chip. The ligand (Bcl-xL) was immobilized using amine-coupling chemistry. The surfaces of flow cells on a Biacore sensor chip CM5 were activated for 7 min with a 1:1 mixture of 0.1 M NHS (N-hydroxysuccinimide) and 0.1 M EDC (3-(N,N-dimethylamino) propyl-N-ethylcarbodiimide) at a flow rate of 5 μL/min. The ligand (Bcl-xL) at a concentration of 180 μg/mL in 10 mM sodium acetate, pH 4.5, was immobilized at a density of about 10000 RU on flow cell 2; the ligand (SUMO-Bcl-2, 37.5 kDa, > 90% pure based on SDS–PAGE) at a concentration of 44 μg/ml in 10 mM sodium acetate, pH 4.5, was immobilized at a density of 10000 RU on flow cell 3; flow cell 1 was left blank to serve as a reference surface. All the surfaces were blocked with a 7 min injection of 1 M ethanolamine, pH 8.0.
(§2) For kinetic analysis, a concentration series of analyte were injected over the flow cells at a flow rate of 60 μL/min at 20 °C. The complex was allowed to associate and dissociate for 120 and 180 s, respectively. For binding studies, analyte (or test compound) was injected over the two flow cells in duplicate at indicated concentration at a flow rate of 60 μL/min at 20 °C. The running buffer consisted of 20 mM HEPES, 150 mM NaCl, 3 mM EDTA, 1 mM DTT, 0.05% P20, 5% DMSO, pH 7.4. The complex was allowed to associate and dissociate for 120 and 180 s, respectively. The buffer samples containing a range of 4–6% DMSO were injected at the beginning, used for solvent correction. The surfaces were regenerated between binding cycles with a 5 s injection of 5 mM NaOH for compounds and 10 mM Glycine pH 2.5 for 20-mer.
All measurements were taken with flow cell 1 as a reference (i.e. sensorgram depicts “2–1 correction”) and corrected for DMSO bulk differences via the calibration curves. To obtain kinetic rate constants (Ka and Kd), corrected response data were fit to a simple 1:1 interaction model using local fit (includes correction for mass transport limitations) available within Biaevaluation 3.1 software or Scrubber2 software. The equilibrium dissociation constant (KD) was determined by Kd/Ka.

[1] = test system: DU145, PC-3a and PC-3 prostate cancer cell lines; experiment: MTT-based cytotoxicity assay, all three prostate cancer cell lines; parameters: species or system Human; settings: for IC50: Homo sapiens, DU-145, MTT, DU145, PC-3a and PC-3, read-out: cytotoxicity IC50, stated for all three cell lines together; for fold difference in IC50 value, PC-3 and PC-3a versus DU145: higher cytotoxicity in PC-3 and PC-3a than in DU145
Excerpt: We also tested the cytotoxicity of the 17 compounds in human prostate cancer cell lines by MTT assay (Table 1).
Human prostate cancer cell lines PC-3 and DU145, were purchased from American Type Culture Collection (ATCC) and used within 50 passages. […] All cells were maintained in DMEM (Mediatech, Manassas, VA) supplemented with 10% fetal bovine serum (FBS) (Sigma-Aldrich, St. Louis, MO), 1% Glutamine (Mediatech, Manassas, VA), 1% antibiotics (Mediatech, Manassas, VA). Compounds for primary FP-based HTS screening were from Prestwick, Microsource, University of Kansas Center of Excellence in Chemical Methodologies & Library Development (KU CMLD, Lawrence, KS), and Chembridge libraries. Compounds for MTT and SPR validation experiment were purchased from Microsource (Gaylordsville, CT) and Hit2lead Company (San Diego, CA). […] (–)-Gossypol was isolated from racemic gossypol as we previously described. ABT-263 and DMSO were purchased from Sigma. MTT-based cytotoxicity assay and western blot analysis was carried out according to our previous publications. The primary antibodies used were LC3B (#2775) (Cell signaling Technology, Danvers, MA) and β-actin (A5441) (Sigma).

PC-3a = experiment: MTT-based cytotoxicity assay, PC-3a; settings: Homo sapiens, averages of at least two independent experiments, read-out: Cytotoxicity in different cell lines (IC50, μM) PC-3a
Excerpt: (§3) Human prostate cancer cell lines PC-3 and DU145, were purchased from American Type Culture Collection (ATCC) and used within 50 passages. PC-3a is a derivative of PC-3 that is resistant to chemo/radiotherapy, established in our lab and confirmed by genotyping. All cells were maintained in DMEM (Mediatech, Manassas, VA) supplemented with 10% fetal bovine serum (FBS) (Sigma-Aldrich, St. Louis, MO), 1% Glutamine (Mediatech, Manassas, VA), 1% antibiotics (Mediatech, Manassas, VA). Compounds for primary FP-based HTS screening were from Prestwick, Microsource, University of Kansas Center of Excellence in Chemical Methodologies & Library Development (KU CMLD, Lawrence, KS), and Chembridge libraries. Compounds for MTT and SPR validation experiment were purchased from Microsource (Gaylordsville, CT) and Hit2lead Company (San Diego, CA). Acridine analogues, compound 1–6, were from our in-house library (provided by Specialized Chemistry Center, University of Kansas, Lawrence, KS); compound 7–17 were synthesized as described in supplementary information. (–)-Gossypol was isolated from racemic gossypol as we previously described. ABT-263 and DMSO were purchased from Sigma. MTT-based cytotoxicity assay and western blot analysis was carried out according to our previous publications. The primary antibodies used were LC3B (#2775) (Cell signaling Technology, Danvers, MA) and β-actin (A5441) (Sigma).

DU145 = experiment: MTT-based cytotoxicity assay, DU145; settings: Homo sapiens, DU-145, averages of at least two independent experiments, read-out: Cytotoxicity in different cell lines (IC50, μM) DU145
Excerpt: as §3

PC-3 = experiment: MTT-based cytotoxicity assay, PC-3; settings: Homo sapiens, averages of at least two independent experiments, read-out: Cytotoxicity in different cell lines (IC50, μM) PC-3
Excerpt: as §3

[2] = biological target: T2, Bcl-xL-Beclin 1 20-mer complex (Homo sapiens, UniProt Q07817); experiment: FP competitive binding assay (disruption of Bcl-xL-20-mer complex); settings: 50 nM 20-mer, 2 μM Bcl-xL
T2 construct: made in house
Procedure: Figure 1 FP-based HTS for Beclin 1 mimetics (A) Schematic presentation of the Beclin 1 protein and sequences of five synthetic peptides modified from Beclin 1 BH3 peptide. Diagram of human Beclin 1 protein with different domains is shown in the bottom. BH3 domain is necessary and sufficient for interaction with Bcl-2/Bcl-xL. Amino acids in red are the critical residues for the binding. (B) Five fluorescein-labeled Beclin 1 BH3 peptides were tested for their binding ability to Bcl-xL protein in FP assay. Fluorescein-labeled Bak BH3 peptide was used as a positive control. Bcl-xL protein was titrated to a solution of 50 nM peptides. (C) Competitive binding assay with positive controls, ABT-263 and (–)-gossypol ((–)G). […] (D–E) HTS was performed with ~50000 compounds from Prestwick, Microsource, CMLD and Chembridge libraries. The four libraries were divided into two groups and screened separately. Compounds activity (percent of inhibition) of first screen (D) and second screen (E) were shown with Z′ value indicated on top. Plate median + 3SD was used as a threshold to determine the initial hits.
Bcl-xL protein was immobilized on the sensor chip with 10000 RU.
All N′-fluorescein-labeled peptides were purchased from Kansas State University (Manhattan, KS). […] 16mer Bak ([…]) sequence was from published literature. Bcl-xL protein (25 kDa, > 90% pure based on SDS–PAGE) was expressed and purified in Protein Product Group, University of Kansas. FP assays were carried out as described in our previous publication with some modified. […] Then, fluorescein-labeled peptide was added to each well with a final concentration of 50 nM and incubated at room temperature for 30 min. Anisotropy measurements were taken at room temperature using a BioTek Synergy H4 plate reader (Biotek, Winooski, VT) following the protocol recommended by the manufacture. The Kd was estimated by nonlinear regression to a one-site binding model using GraphPad Prism 5.0 (GraphPad, San Diego, CA). […] Compound solvent DMSO only was used as a negative control in the competition assay. After 2 h incubation, the plate was read and polarization was calculated.

[3] = test system: PC-3 and PC-3a prostate cancer cells; experiment: Western blot of autophagy markers (LC3 conversion, P62); type: cell-based, Human
Procedure: Figure 5 Acridine compounds induce autophagy in prostate cancer cells (A) LC3-II conversion in western blot analysis indicated the activity of autophagy. Cells were treated with DMSO or compounds for 24 h, and then lysed and processed for western blot analysis of LC3. (–)G and EBSS were used as positive controls. […] Yellow puncta indicate autophagosome (overlay of red and green fluorescence); red puncta indicate autolysosome (due to green fluorescence quenching at the acidic condition). Cells expressing RFP-GFP-LC3 were treated with compounds A13, A15 or A21 at indicated concentration for 24 h.
Figure 8 Acridine compounds induce autophagy in PC-3 and PC-3a cancer cells LC3-II conversion in western blot analysis indicated the activity of autophagy. Cells were treated with DMSO or compounds for 24 h, and then lysed and processed for western blot analysis of LC3. (–)G and EBSS were used as positive controls.
as §3

[4] = biological target: Bcl-2 protein (SUMO-Bcl-2) (Homo sapiens, UniProt P10415); experiment: Surface plasmon resonance assay, immobilized Bcl-2; type: binding
Procedure: as §1, §2
All measurements were taken with flow cell 1 as a reference (i.e. sensorgram depicts “2–1 correction”) and corrected for DMSO bulk differences via the calibration curves. […] The equilibrium dissociation constant (KD) was determined by Kd/Ka.

Bcl-2 protein (SUMO-Bcl-2), sequence (P10415 1-211 limits assumed): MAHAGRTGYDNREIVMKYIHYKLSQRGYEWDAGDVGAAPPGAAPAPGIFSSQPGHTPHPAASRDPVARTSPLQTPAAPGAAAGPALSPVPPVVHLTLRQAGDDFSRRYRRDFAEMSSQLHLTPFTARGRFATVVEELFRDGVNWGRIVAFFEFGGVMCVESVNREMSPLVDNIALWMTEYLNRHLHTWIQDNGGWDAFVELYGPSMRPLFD
T1 sequence (Q07817 whole entry): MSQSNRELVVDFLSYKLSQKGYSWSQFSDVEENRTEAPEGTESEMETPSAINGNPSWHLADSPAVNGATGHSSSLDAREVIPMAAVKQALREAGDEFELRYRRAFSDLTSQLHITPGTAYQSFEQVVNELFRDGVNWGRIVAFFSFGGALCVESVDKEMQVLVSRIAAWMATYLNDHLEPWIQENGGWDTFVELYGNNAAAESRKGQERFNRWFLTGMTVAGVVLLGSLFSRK
T2 sequence (Q07817 whole entry, one chain of several): as the sequence (Q07817 whole entry) above

Row | binding level to Bcl-xL protein in SPR (Bcl-xL protein; SPR) | SMILES | IC50 [1] [µM] | IC50 (PC-3a) [µM] | IC50 (DU145) [µM] | IC50 (PC-3) [µM] | also measured
1 | almost no binding | COc1ccc(CCNc2ncnc3ccccc23)cc1OC [Compound 3] | > 100 | 82.7 ± 7.99 | > 100 | – | –
2 | almost no binding | O=C(CSc1nc(=O)c2ccccc2[nH]1)c1ccc(O)c(O)c1 [Compound 6] | > 100 | > 100 | > 100 | > 100 | –

The next lines start with the compound.

Row | SMILES | binding level to Bcl-xL protein in SPR (Bcl-xL protein; SPR) | IC50 [1] [µM] | IC50 (PC-3a) [µM] | IC50 (DU145) [µM] | IC50 (PC-3) [µM] | also measured
3 | COc1ccc2nc3cc(Cl)ccc3c(-c3ccc([N+](=O)[O-])cc3)c2c1 [Compound 14] | almost no binding | > 100 | > 100 | > 100 | > 100 | melting point: 207 to 211 °C
4 | CC1(C)CCC(c2ccc(Cl)cc2)=C(CN2CCN(c3ccc(C(=O)NS(=O)(=O)c4ccc(N[C@H](CCN5CCOCC5)CSc5ccccc5)c(S(=O)(=O)C(F)(F)F)c4)cc3)CC2)C1 [ABT-263] | – | – | – | – | – | competitive displacement of fluorescent 20-mer [2]: capable of freeing out fluorescent 20mer
5 | COc1ccc2nc3cc(Cl)ccc3c(N3CCN(C)CC3)c2c1 [Compound 9] | – | – | 3.51 ± 1.15 | 6.24 ± 1.86 | 2.93 ± 1.18 | melting point: 135 to 138 °C
6 | CC(=O)O.Cc1cc2c(C(C)C)c(O)c(O)c(C=O)c2c(O)c1-c1c(C)cc2c(C(C)C)c(O)c(O)c(C=O)c2c1O [(–)-gossypol] | – | – | – | – | – | competitive displacement of fluorescent 20-mer [2]: capable of freeing out fluorescent 20mer
7 | Nc1c2ccccc2nc2ccccc12 [Compound 5] | – | 0.5 to 5 | 0.74 ± 0.45 | 2.78 ± 0.79 | 0.79 ± 0.07 | fold difference in IC50 value, PC-3 and PC-3a versus DU145 [1]: 3–5 fold
8 | CCN(CC)CCCCNc1c2ccc(Cl)cc2nc2ccc(OC)cc12 [Compound 7] | higher binding level than original hit A21 | < 0.5 | 0.1 ± 0.05 | 0.27 ± 0.13 | 0.11 ± 0.07 | kon (Bcl-xL protein; SPR kinetic analysis, 1:1 model, read-out: association rate (Ka) to Bcl-xL): 29600 M⁻¹ s⁻¹; koff (Bcl-xL protein; SPR kinetic analysis, 1:1 model, read-out: dissociation rate (Kd) from Bcl-xL): 0.193 s⁻¹; Kd (Bcl-xL protein; SPR, KD = Kd/Ka, read-out: equilibrium dissociation constant KD to immobilized Bcl-xL): 6.5 µM; selectivity for Bcl-xL protein over Bcl-2 (Bcl-xL protein; from SPR KD values): about 25 fold; SQSTM1/P62 turnover [3]: degradation of P62; LC3-I to LC3-II conversion ([3]; 24 h treatment): triggered the conversion of LC3-I to LC3-II; fold difference in IC50 value, PC-3 and PC-3a versus DU145 [1]: 3–5 fold; kon ([4]; SPR kinetic analysis, 1:1 model, read-out: association rate (Ka) to Bcl-2): 3200 M⁻¹ s⁻¹; koff ([4]; SPR kinetic analysis, 1:1 model, read-out: dissociation rate (Kd) from Bcl-2): 0.51 s⁻¹; Kd ([4]; SPR, KD = Kd/Ka, read-out: equilibrium dissociation constant KD to immobilized Bcl-2): 160 µM
9 | COc1ccc2nc3ccccc3c(-c3ccc([N+](=O)[O-])cc3)c2c1 [Compound 11] | almost no binding | > 100 | > 100 | > 100 | > 100 | –
10 | COc1ccc2nc3cc(Cl)ccc3c(-c3ccc(F)cc3)c2c1 [Compound 15] | almost no binding | > 100 | > 100 | > 100 | > 100 | –
